Measurements: patent publication US11633383B2, “Dosage principle for drugs useful for treating neoplastic diseases” (Basilea Pharmaceutica International AG, priority 2017, dated 2023)
Blank lines part the entries; values can stand above or below the molecule they belong to.

How the values were obtained:
[1] = Plasma concentrations of BAL27862 (Cmax, AUC) in patients, 2-hour intravenous infusion study; assay type: in vivo, human; settings: mean
Description: (§1) In one clinical trial BAL101553 (dihydrochloride salt) was given as a 2-hour infusion on days 1, 8, and 15 of each 28-day cycle (comparative Example).
(§2) BAL101553 (dihydrochloride salt) for intravenous administration is prepared by reconstitution of lyophilized BAL101553 (dihydrochloride salt) with saline solution or Ringer lactate solution, prior to further dilution with Ringer lactate for intravenous infusion to the patient. The 48-hour infusion is administered via an elastomeric pump (Baxter) using an infusion volume of 120 ml or 240 ml.
2-hour intravenous infusion study: on day 1 of cycle 1 blood samples were collected at pre-dose and where clinically feasible 0.5, 1, 2, 3, 4, 6, 8 and 24 hours after dosing.
(§3) Venous blood samples were collected into chilled 2 ml plastic tubes containing K2-EDTA as an anticoagulant mixed with 20 μl 2M citric acid and kept on ice for 15 minutes. Approximately 1.0 ml plasma was prepared by centrifugation at 1′500×g for 10-15 minutes at 4° C., transferred into new vials and stored at −80° C. until analysis. Plasma concentrations of BAL27862 were determined with a fully validated LC-MS/MS method:
(§4) 50 μl of acetonitrile was added to 25 μl plasma containing stable labelled internal standards (IS). After vortexing, the samples were centrifuged for 10 minutes at 50′000×g at 8° C. and 50 μl of the supernatant was transferred to an empty auto-sampler vial. The extract was separated by liquid chromatography, performed using water (0.1% formic acid) as mobile phase A and acetonitrile (0.1% formic acid) as mobile phase B. The column used was a YMC Hydroshere C18, 2.1×33 mm, 3 μm (YMC Co, Kyoto, Japan). The injection volume was set to 2 μL (full loop).
(§5) Detection was carried out using a triple-stage quadrupole MS/MS (TSQ Vantage, Thermo Fisher
(§6) Scientific, San Jose, Calif., USA) in the selected reaction monitoring mode.
(§7) The following calibration range was applied:
(§8) 1 to 1000 ng/ml for BAL27862 in human plasma ([…], citric acid)
(§9) Calculation of Pharmacokinetic Parameters (exposure [Area Under the Curve—AUC] and peak [Cmax] drug levels) for Human Samples:
(§10) AUC and Cmax of BAL27862 were calculated by non-compartmental analysis (NCA) using Phoenix WinNonLin 7.0 software from Certara.

[2] = Plasma concentrations of BAL27862 (Cmax, AUC) in patients, daily oral administration study; assay type: in vivo; settings: human, BAL101553 dihydrochloride daily oral, N=7; for AUC: plasma, BAL27862, compared as weekly exposure; for Cmax: BAL27862 in plasma
Description: (§11) In another clinical trial BAL101553 (dihydrochloride salt) was given as a daily oral administration in treatment cycles consisting of 28 days of continuous, daily administration to patients in a fasted state (comparative Example).
(§12) BAL101553 (dihydrochloride salt) for oral administration is prepared as a HPMC capsules containing 1 mg active ingredient, 98 mg of mannitol and 1 mg magnesium stearate, or 5 mg active ingredient, 94 mg mannitol and 1 mg magnesium stearate.
Daily oral administration study: on day 1 of cycle 1 blood samples were collected at pre-dose and where clinically feasible 0.5, 1, 2, 3, 4, 6, 8 and 24 hours after intake of study medication.
as §3, §4, §5, §6, §7, §8, §9, §10

[3] = Plasma concentrations of BAL27862 (Cmax, AUC) in patients, 48-hour intravenous infusion study; assay type: in vivo, human; settings: for AUClast / Cmax: BAL27862 in plasma; for AUC: plasma, BAL27862, compared as weekly exposure
Description: (§13) In another clinical trial BAL101553 (dihydrochloride salt) was given as a 48-hour infusion on days 1, 8 and 15 of each 28 day cycle.
as §2
48-hour intravenous infusion study: on day 1 of cycle 1 blood samples were collected at pre-dose and where clinically feasible 0.5, 1, 2, 4, 8, 24, 30, 48, 52, 54, 72, and 168 hours after dosing.
as §3, §4, §5, §6, §7, §8, §9, §10

[4] = Blood pressure measurements in patients treated with BAL101553; assay type: in vivo, human; settings: cycle 1 day 1
Description: On day 1 of cycle 1 of the 2-hour and 48-hour intravenous infusion studies systolic and diastolic blood pressures were measured using a calibrated, automated blood pressure device at various time points, i.e. prior to the first administration of study drug and then at least hourly for the first 4 hours after start of dosing.

[5] = cited from earlier work
[6] = cited from earlier work; remark: listed apart in the source
[7] = Clinical trials of BAL101553: maximum tolerated dose and adverse drug reactions; assay type: in vivo, human
Description: as §1, §13, §11, §2, §12

tumour = test: Clinical trials of BAL101553: tumour response; assay type: in vivo, human
Description: as §13, §11

[8] = BAL101553 dihydrochloride 45 mg/m^2, 2 hours infusion, N=8, cycle 1 day 1
[9] = BAL101553 dihydrochloride 60 mg/m^2, 2 hours infusion, N=21, cycle 1 day 1
[10] = BAL101553 dihydrochloride 45 mg/m^2, 48 hours infusion, mean, N=3, cycle 1 day 1
[11] = BAL101553 dihydrochloride 70 mg/m^2, 48 hours infusion, mean, N=4, cycle 1 day 1
[12] = BAL101553 dihydrochloride 90 mg/m^2, 48 hours infusion, mean, N=4, cycle 1 day 1
[13] = 2-hour infusion on study days 1, 8 and 15, q28 days, 2016 ASCO poster

AUClast [1, 8]: 4340 h*ng/m
Cmax [1, 8]: 356 ng/m
AUClast [1, 9]: 6040 h*ng/m
Cmax [1, 9]: 498 ng/m
AUC ([2]; 16 mg): 8400 ng·h/mL
AUC ([2]; 20 mg): 12200 ng·h/mL
Cmax ([2]; 16 mg): 131 ng/mL
Cmax ([2]; 20 mg): 134 ng/mL
variability of pharmacokinetic exposure (AUC) ([3]; 48-hour dose regimen versus daily oral regimen): lower variability
AUClast [3, 10]: 3830 h*ng/m
Cmax [3, 10]: 77.7 ng/m
AUClast [3, 11]: 9030 h*ng/m
Cmax [3, 11]: 152 ng/m
AUClast [3, 12]: 12000 h*ng/m
Cmax [3, 12]: 238 ng/m
Cmax ([3]; human, intravenous, BAL101553 dihydrochloride 48-hour infusion, 70 mg/m^2, N=9, read-out: Cmax (mean, ng/ml)): 148 ng/mL
Cmax ([3]; human, intravenous, BAL101553 dihydrochloride 48-hour infusion, 90 mg/m^2, N=4, read-out: Cmax (mean, ng/ml)): 238 ng/mL
AUC ([3]; human, intravenous, BAL101553 dihydrochloride 48-hour infusion, 70 mg/m^2, N=9): 8580 ng·h/mL
AUC ([3]; human, intravenous, BAL101553 dihydrochloride 48-hour infusion, 90 mg/m^2, N=4): 13500 ng·h/mL
SMILES: N#CCCNc1nonc1-c1nc2ccccc2n1CC(=O)c1ccc(N)cc1 [BAL27862, 3-(4-{1-[2-(4-Amino-phenyl)-2-oxo-ethyl]-1H-benzoimidazol-2-yl}-furazan-3-ylamino)-propionitrile]

SMILES: N#CCCNc1nonc1-c1nc2ccccc2n1CC(=O)c1ccc(NC(=O)[C@@H](N)CCCCN)cc1 [BAL101553, (S)-2,6-Diamino-hexanoic acid [4-(2-{2-[4-(2-cyano-ethylamino)-furazan-3-yl]-benzoimidazol-1-yl}-acetyl)-phenyl]-amide]
change from baseline in systolic and diastolic blood pressure ([4]; infused over 48 hours, 45 or 70 mg/m^2): neutral blood pressure profile or a minor average change from baseline
change from baseline in systolic and diastolic blood pressure ([4]; infusion duration of 2 hours, 45 or 60 mg/m^2): distinct changes from baseline
water solubility [5]: highly water-soluble
myocardial ischemia [6, 13]: asymptomatic myocardial ischemia
recommended phase 2 dose [6, 13]: 30 mg/m^2
vascular effects ([6]; 2-hour infusion, related to peak drug concentration (Cmax), 2016 ASCO poster): dose-dependent vascular effects that were dose-limiting
MTD ([6]; 2-hour intravenous administration, phase I escalation study of WO2015/173341): 60 mg/m^2
troponin elevation indicative of myocardial damage ([7]; 45 mg/m^2 or 60 mg/m^2, 2-hour infusion): Three patients
troponin elevation indicative of myocardial damage ([7]; 45 mg/m^2 or 70 mg/m^2, 48-hour infusion): not observed
Grade 4 hyponatremia ([7]; 90 mg/m^2 (supra-MTD), 48-hour infusion regimen): no observation of Grade 4 hyponatremia
maximum tolerated dose (MTD) ([7]; 48-hour infusion on days 1, 8 and 15 of each 28 day cycle): 70 mg/m^2
Serious Grade 4 adverse drug reactions ([7]; 48-hour infusion, 70 mg/m^2, N=9): None
Serious Grade 4 adverse drug reactions ([7]; 48-hour infusion, 90 mg/m^2, N=4): None
maximum tolerated dose (MTD) ([7]; daily oral administration, 28-day cycles, fasted state): 16 mg/day
serious Grade 4 hyponatremia ([7]; daily oral dose of 20 mg/day (supra-MTD)): 2 patients
Serious Grade 4 adverse drug reactions ([7]; daily oral, 16 mg, N=7): None
Serious Grade 4 adverse drug reactions ([7]; daily oral, 20 mg, N=7): 2 patients with
tumour response (tumour; 48-hour infusion regimen, MTD dose (70 mg/m^2)): partial tumour response in a patient
objective responses (tumour; daily oral dose regimen, any dose): no objective responses were observed
